The target in data set [1] is dog renal Na^+/K^+ ATPase (Canis lupus familiaris (Dog) (Canis familiaris), UniProt P50997). In words: biochemical. The settings on record: IC50 inhibition of dog renal Na+/K+ ATPase, purified dog kidney enzyme.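 Note: enzyme preincubated with inhibitor 10 min at 37 °C, then K^+ and ^32P-ATP added for 15 min, released ^32P counted, activity relative to untreated control.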
Description: Inhibition of Dog Renal Na^+/K^+ ATPase Activity
The compounds were thus tested for their inhibitory effect on the canine renal Na^+/K^+ ATPase enzyme.
Kidneys were excised from 1-3 year-old male beagle dogs (WuXi AppTec, Suzhou Co., Ltd. 1318 Wuzhong Ave., Wuzhong District Suzhou, 215104 P.R. China) under pentobarbital anesthesia (Import Authorization from Italian Health Ministry 0009171-09/04/2015-DGSAF-COD_UO-P, 2015). Kidneys were sliced and the outer medulla was dissected and suspended (1 g/10 ml) in a sucrose-histidine solution containing 250 mM sucrose, 30 mM histidine, and 5 mM EDTA, pH 7.2. The tissue was homogenized by using an Ultra Turrax homogenizer. The sample was centrifuged at 6,000 g for 15 min. Next, the supernatant was decanted and centrifuged at 48,000 g for 30 min. The pellet was suspended in the sucrose-histidine buffer and incubated for 20 min with a sodium-dodecyl-sulphate (SDS) solution dissolved in a gradient buffer containing 25 mM imidazole and 1 mM EDTA, pH 7.5. The sample was layered on the top of a sucrose discontinuous gradient (10, 15, and 29.4%) and centrifuged at 60,000 g for 115 min. The pellet was suspended in the gradient buffer.
Increasing concentrations of the standard ouabain, or tested compound, were incubated with 0.3 μg of purified dog kidney enzyme for 10 min at 37° C. in 120 μl final volume of a medium containing 140 mM NaCl, 3 mM MgCl2, 50 mM Hepes-Tris, 3 mM ATP, pH 7.5. Then, 10 μl of a solution containing 10 mM KCl and 20 nCi of ^32P-ATP (3-10 Ci/mmol, Perkin Elmer) were added. The reaction was allowed to continue for 15 min at 37° C. and then stopped by acidification with 20% v/v ice-cold perchloric acid. ^32P was separated by centrifugation with activated Charcoal (Norit A, Serva) and the radioactivity was counted. The inhibitory activity was expressed as percent of the control samples carried out in the absence of ouabain, or tested compound.
For a further data set, the target named is SERCA2a (Cavia porcellus, UniProt A0A286XD73). In words: SERCA2a ATPase activity in heart-derived SR microsomes from normal guinea-pig. Format: biochemical. The method, then:
SERCA2a ATPase Activity in Heart-Derived SR Microsomes from Normal Quinea-Pig
SERCA2a activity was measured in vitro as ^32P-ATP hydrolysis at different Ca^2+ concentrations (100-4000 nM) in the absence and presence of the tested compounds, as described (Micheletti R. et al., Am J Card 2007, 99:24A-32A). Increasing concentrations of each compound (ranging from 1 to 200 nM) were pre-incubated with 2 μg of SERCA2a enriched microsomes for 5 min at 4° C. in 80 μl of a solution containing 100 mM KCl, 5 mM MgCl2, 1 μM A23187, 20 mM Tris, pH 7.5. […] SERCA2a-dependent activity was identified as the portion of total hydrolytic activity inhibited by 10 μM cyclopiazonic acid (Seidler N W et al., J Biol Chem. 1989, 264:17816-23).
Dose-response curves were fitted by using a sigmoidal equation and the activity at the maximal velocity (Vmax) and the Kd for Ca^2+ were calculated (Synergy Software KaleidaGraph 3.6). The effect of the compounds in normal guinea-pig preparations was expressed as % decrease of Kd Ca^2+ (implying an increase of affinity for Ca^2+) of a control sample run in the absence of compound (Table 2). […] Data are mean±SD, n=number of experiments, *at least p<0.05.

Data set [2] has as its system guinea-pig ventricular myocytes. The data set can be described thus: Action potential measurements in guinea-pig ventricular myocytes. Format: cell-based. The settings on record: 1 μM. How it is done:
(§1) The compounds were characterized for their effect on (i) SR Ca^2+ uptake function and (ii) action potential (AP) in myocytes freshly dissociated from rat and guinea-pig ventricles, respectively, by retrograde coronary perfusion with enzymatic solution (Rocchetti M et al., J Pharmacol Exper Therap 2005, 313(1):207-215).
Cvie216 and Cvie214 effects on action potential parameters were evaluated at the concentration of 1 μM modulating SERCA2a in guinea-pig myocytes. The action potential (AP) contour provides a first-line estimate of the integrated function of membrane ion channels, and its changes may disclose ancillary actions—potentially resulting in untoward effects of the compound. To increase sensitivity of the AP contour as a reporter, effects on the rate-dependency of AP parameters were also tested, thus providing a multiparametric (more stringent) approach. AP were recorded in guinea-pig ventricular myocytes because the AP contour reproduces the human AP. […] Statistical analysis was performed by a “group comparison” model.
APs were recorded in normal Tyrode's solution at 36.5° C. in guinea-pig ventricular myocytes. The following parameters were measured at 4 stimulation rates (0.5-1-2-4 Hz): diastolic membrane potential (Ediast), maximum depolarization velocity (dV/dtmax), action potential duration (APD at 90% of repolarization). Short term APD variability (STV) during steady-state pacing, an index of repolarization stability, was measured as the sum of absolute orthogonal deviations from the identity line in the APDnfAPDn+1 plot (Poincare plot) (Altomare C et al., Circulation A&E 2015, 8:1265-1275).

In data set [3] the test system is rat ventricular myocytes isolated from STZ rats. In words: SR Ca2+ uptake function in ventricular myocytes from STZ rats (loading protocol). Format: cell-based. The following applies: 1 μM.
Description: as §1
To test the effects of the compounds in a model of diastolic dysfunction, Sprague Dawley male rats (150-175 g) were made diabetic by a single tail vein injection of streptozotocin (STZ 50 mg/kg, Sigma-Aldrich). STZ was freshly prepared in 0.1 M sodium citrate buffer at pH 4.5. Fasting glycaemia was measured after 1 week and rats with values >300 mg/dl were considered diabetic. Drug effects on SR Ca^2+ uptake function were evaluated in isolated left ventricular myocytes 9 weeks after STZ injection. Myocytes were incubated for at least 30 min in the presence of a specific drug to guarantee its cell membrane permeation. Statistical analysis was performed by a “group comparison” model.
Drug effects on SR Ca^2+ uptake rate were evaluated with a SR “loading protocol” specifically devised to rule out the contribution of the Na/Ca exchanger (NCX) and to assess the uptake rate starting at low levels of SR Ca^2+ loading. Under voltage-clamp conditions, intracellular Ca^2+ concentration was dynamically measured by epifluorescence (Fluo4-AM). Membrane current, whose time-dependent component mainly reflected ICaL, was simultaneously recorded. The SR loading protocol consisted in emptying the SR by a brief caffeine pulse and then progressively refilling it by voltage steps activating Ca^2+ influx through the sarcolemmal Ca^2+ channel (ICaL). NCX was blocked by omission of Na^+ from intracellular and extracellular solutions. The procedure is in agreement with published methods, with minor modifications (Rocchetti M et al., J Pharmacol Exper Therap 2005, 313:207-215).
Drug effects on SR Ca^2+ uptake were analyzed by considering multiple parameters: the rate at which 1) Ca^2+ transient (CaT) amplitude and 2) the Ca^2+ induced Ca^2+ release (CICR) gain increased during the loading protocol, reflecting the rate at which the SR refilled and the gain of the system, 3) the time constant of cytosolic Ca^2+ decay (τdecay) within each pulse, reflecting net Ca^2+ transport rate (by SERCA2a) across the SR membrane (a decrease in τdecay corresponds to enhanced SR Ca^2+ uptake).

The mark [4] stands for this setting: read-out: Kd Ca2+ (nM) mean ± SD, compound 100 nM.
The mark [5] stands for this setting: read-out: Kd Ca2+ (nM) mean ± SD, compound 200 nM.
[6] abbreviates: read-out: Kd Ca2+ (nM) mean ± SD, compound 10 nM.
[7] abbreviates: compound 10 nM, read-out: Kd Ca2+ (nM) mean ± SD.
Where [8] appears, read: compound 100 nM, read-out: Kd Ca2+ (nM) mean ± SD.
[9] abbreviates: compound 200 nM, read-out: Kd Ca2+ (nM) mean ± SD.

“Also recorded” adds a separate entry of the source. Like-named read-outs stand apart in the source and are kept apart here. Marks after values point to notes of the source that are not given here.

As usually defined, the IC50 is the concentration needed to halve the response being measured. Lower therefore signals higher potency. A word on the Kd: it is a measure of binding affinity in units of concentration.

Chain of SERCA2a (A0A286XD73 1-997): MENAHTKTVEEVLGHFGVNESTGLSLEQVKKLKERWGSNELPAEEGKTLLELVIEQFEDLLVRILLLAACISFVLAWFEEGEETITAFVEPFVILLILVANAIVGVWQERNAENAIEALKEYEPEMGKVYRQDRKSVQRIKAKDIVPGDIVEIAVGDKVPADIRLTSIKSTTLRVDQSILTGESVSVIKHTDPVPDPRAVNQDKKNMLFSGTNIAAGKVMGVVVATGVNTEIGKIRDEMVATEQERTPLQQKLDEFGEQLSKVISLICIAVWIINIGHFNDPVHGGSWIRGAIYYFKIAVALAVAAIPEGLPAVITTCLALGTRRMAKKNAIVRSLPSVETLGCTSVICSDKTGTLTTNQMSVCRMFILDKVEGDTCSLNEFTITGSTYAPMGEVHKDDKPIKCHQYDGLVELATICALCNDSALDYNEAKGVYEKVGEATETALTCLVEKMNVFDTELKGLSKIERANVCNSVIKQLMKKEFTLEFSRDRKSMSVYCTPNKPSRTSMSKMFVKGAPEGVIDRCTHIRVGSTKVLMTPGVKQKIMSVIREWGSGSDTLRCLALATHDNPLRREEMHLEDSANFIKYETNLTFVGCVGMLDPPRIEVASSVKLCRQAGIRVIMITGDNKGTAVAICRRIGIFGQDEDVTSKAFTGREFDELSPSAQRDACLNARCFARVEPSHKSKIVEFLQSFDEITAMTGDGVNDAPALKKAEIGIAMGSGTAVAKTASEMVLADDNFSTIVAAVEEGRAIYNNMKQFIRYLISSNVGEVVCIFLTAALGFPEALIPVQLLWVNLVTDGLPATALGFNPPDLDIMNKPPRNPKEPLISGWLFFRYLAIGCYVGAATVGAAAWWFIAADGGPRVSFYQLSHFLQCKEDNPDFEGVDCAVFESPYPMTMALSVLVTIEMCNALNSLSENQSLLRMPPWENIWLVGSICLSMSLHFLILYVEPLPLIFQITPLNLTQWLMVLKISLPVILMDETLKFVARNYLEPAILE

As for `C[C@]12CC/C(=C\CC3CNC3)CC1[C@@H](O)C[C@@H]1[C@@H]2CC[C@]2(C)C(=O)CC[C@@H]12` (stereo partly drawn) [CVie205, (E)-3-[2-(azetidin-3-yl)ethyliden]-6alpha-hydroxyandrostane-17-one], the concentration for half-maximal inhibition (IC50) in data set [1] was determined as 7000 nM. The “% change in Ca2+ Kd vs control (negative = decrease)” value (shortened to “% change … (negative = decrease)”) is given as −16.7%* on SERCA2a (compound 100 nM) and −13.1%* at SERCA2a (compound 200 nM). For the same molecule, the Kd at SERCA2a (setting [4]) amounted to 656 ± 56.6 nM; on SERCA2a (setting [5]), 683 ± 46.4 nM.

For the molecule `C[C@]12CC[C@H](CCC3CNC3)CC1[C@@H](CO)C(=O)C1C2CC[C@]2(C)C(=O)CCC12` (stereo partly drawn) [CVie407], the IC50 in data set [1] was determined as 3500 nM. In addition, the “% change … (negative = decrease)” value on SERCA2a (compound 100 nM) was −8.9%; at SERCA2a (compound 200 nM), 0%. For the same molecule, the values for the dissociation constant (Kd) on SERCA2a (setting [4]) and on SERCA2a (setting [5]) were 390 ± 91.4 nM and 428 ± 87.3 nM, respectively.

Molecule `C[C@]12CC[C@H](CCC3CCNCC3)CC1[C@@H](CO)[C@@H](O)[C@@H]1[C@@H]2CC[C@]2(C)C(=O)CC[C@@H]12` (stereo partly drawn) [CVie412, 3beta-[2-(piperidin-4-yl)ethyl]-6alpha-hydroxymethyl-7alpha-hydroxyandrostane-17-one] displayed an IC50 in data set [1] of 3000 nM. Moreover, the “% change … (negative = decrease)” value on SERCA2a (compound 100 nM) was −19.1%; on SERCA2a (compound 200 nM), −19.6%*. The Kd at SERCA2a (setting [4]) worked out at 363 ± 74.1 nM; on SERCA2a (setting [5]), 361 ± 76.3 nM.

In the case of `C[C@]12CC[C@H](CC(=O)O)CC1C(O)CC1C2CC[C@]2(C)C(=O)CCC12` (stereo in doubt) [CVie216, 2-(6beta-hydroxy-17-oxoandrostane-3-yl) acetic acid], the half-maximal inhibitory concentration (IC50) in data set [1] was above 100000 nM. In addition, the Kd at SERCA2a (read-out: Kd Ca2+ (nM) mean ± SD, compound 1 nM) worked out at 529 ± 75.8 nM. Also, the dissociation constant Kd on SERCA2a (setting [6]) is 465 ± 73.4 nM. Further, the dissociation constant (Kd) at SERCA2a (setting [4]) was determined as 443 ± 85.1 nM. Further, the dissociation constant Kd on SERCA2a (setting [5]) worked out at 463 ± 76.3 nM. Also, in data set [2] (0.5-1-2-4 Hz), the “action potential duration (APD90)” value is given as “did not affect”, the “diastolic membrane potential (Ediast)” value is given as “did not affect”, the “maximum depolarization velocity (dV/dtmax)” value is recorded as “did not affect” and the “rate-dependency of each AP parameter” value was “did not affect”. The “slope of linear fit STV vs mean APD90” value in data set [2] (all pacing rates pooled) is reported as 0.009. The “short term APD variability (STV) and its dependency on mean APD” value in data set [2] (pacing rates 0.5-1-2 and 4 Hz) was “not significantly affected”. Also, in data set [3], the “Ca2+ transient (CaT) amplitude / rate of CaT increment during SR reloading” value is reported as “statistically significant; also recorded: increased”, the “Ca2+ uptake by the SR” value is on record as “significantly increased”, the “Ca2+-induced Ca2+ release (CICR) gain” value is on record as “increase” and the “time constant of Ca2+ decay (τdecay)” value is on record as “reduction”.

Take `C[C@]12CC/C(=C/CC3CNC3)CC1[C@@H](O)C[C@@H]1[C@@H]2CC[C@]2(C)C(=O)CC[C@@H]12` (stereo partly drawn) [CVie206, (Z)-3-[2-(azetidin-3-yl)ethyliden]-6alpha-hydroxyandrostane-17-one]: inhibition in data set [1] was half-maximal at 5900 nM (IC50). Besides, the results for the “% change … (negative = decrease)” value on SERCA2a (compound 100 nM) and on SERCA2a (compound 200 nM) were −13.7%* and −15.1%*, respectively. The equilibrium dissociation constant (Kd) on SERCA2a (setting [4]) came out at 678 ± 86.7 nM; at SERCA2a (setting [5]) it was 667 ± 55.6 nM.

Take `C[C@]12CC/C(=C\CCC(=O)O)CC1[C@H](O)C[C@@H]1[C@@H]2CC[C@]2(C)C(=O)CC[C@@H]12` (stereo partly drawn) [CVie203, (E)-4-(6beta-hydroxy-17-oxoandrostane-3-yliden)butyric acid]: the IC50 in data set [1] is above 100000 nM. Further, the “% change … (negative = decrease)” value was −8% on SERCA2a (compound 10 nM), −15%* on SERCA2a (compound 100 nM) and −14%* at SERCA2a (compound 200 nM). For the same molecule, the dissociation constant (Kd) was found to be 418 ± 36.5 nM at SERCA2a (setting [7]), 386 ± 33.3 nM at SERCA2a (setting [8]) and 393 ± 31.3 nM on SERCA2a (setting [9]).

For `C[C@]12CC[C@H](CCC3CCNCC3)CC1[C@@H](O)C[C@@H]1[C@@H]2CC[C@]2(C)C(=O)CC[C@@H]12` (stereo partly drawn) [CVie212, 3beta-[2-(piperidin-4-yl)ethyl]-6alpha-hydroxyandrostane-17-one], in data set [1], inhibition was half-maximal at 3500 nM (IC50). The “% change … (negative = decrease)” value on SERCA2a (compound 10 nM) is reported as −19.6%*; on SERCA2a (compound 100 nM) it was −20.2%*. In addition, the dissociation constant (Kd) at SERCA2a (setting [6]) worked out at 409 ± 121 nM; on SERCA2a (setting [4]) it was 406 ± 82.9 nM.

As to `CCOC(=O)C[C@H]1CC[C@]2(C)C3CC[C@]4(C)C(=O)CCC4C3C[C@H](O)C2C1` (stereo partly drawn) [CVie213, Ethyl (6alpha-hydroxy-17-ketoandrostane-3beta-yl) acetate], in data set [1], the IC50 is above 100000 nM. The “% change … (negative = decrease)” value on SERCA2a (compound 10 nM) is reported as −12%; at SERCA2a (compound 100 nM), −23%*; on SERCA2a (compound 200 nM) it was −17%*. The dissociation constant Kd was determined as 432 ± 129 nM on SERCA2a (setting [7]), 378 ± 114 nM on SERCA2a (setting [8]) and 407 ± 124 nM at SERCA2a (setting [9]).

The record behind these values is patent US12503484B2, “Androstane derivatives with activity as pure or predominantly pure stimulators of SERCA2a for the treatment of heart failure” (Seismic Pharmaceuticals, priority 2019, dated 2025).
